Measured values reported in patent publication US20090030055A1, “PKC activation as a means for enhancing s[sequence] secretion and improving cognition using bryostatin type compounds” (priority 2002, published 2009).
Entries after “also recorded” stand apart in the source; their conditions may differ.

How the values were obtained:
[1] = test system: PKC; test: PKC affinity of bryostatin 1 and bryologs; type: binding; details: times more potent than bryostatin-1
From the text: Analogs of bryostatin, commonly referred to as bryologs, are one particular class of PKC activators that are suitable for use in the methods of the present invention. […] Structurally, they are all similar. While bryostatin-1 has two pyran rings and one 6-membered cyclic acetal, in most bryologs one of the pyrans of bryostatin-1 is replaced with a second 6-membered acetal ring. This modification […] the stability of bryologs, relative to bryostatin-1, for example, in both strong acid or base, but has little significance at physiological pH. Bryologs also have a lower molecular weight (ranging from about 600 to 755), as compared to bryostatin-1 (988), a property which facilitates transport across the blood-brain barrier.

[2] = test system: PKC; details: cited from earlier work
[3] = test system: sAPPα secretion, AD cell line AG06848; test: sAPPα secretion immunoblot, AD fibroblasts; type: cell-based, human; details: for secretion of sAPPα: AD cell line AG06848, three hours of treatment, relative to DMSO
Procedure: (§1) Cultured skin fibroblasts were obtained from the Coriell Cell Repositories and grown using the general guidelines established for their culture with slight modifications (Cristofalo & Carpentier, 1988; Hirashima et al., 1996). The culture medium in which cells were grown was Dulbecco's modified Eagle's medium (GIBCO) supplemented with 10% fetal calf serum (Biofluids, Inc.). Fibroblasts from control cell lines (AC), cases AG07141 and AG06241, and a familial AD (FAD) case (AG06848) were utilized.
(§2) Cells grown to confluence in 6 cm Petri dishes for 5-7 days. On the day of the experiment, medium was replaced with DMEM without serum and left undisturbed for 2 h. Upon completion of the 2 hour serum deprivation; treatment was achieved by direct application to the medium of Bryo, BL and DMSO at the appropriate concentrations. (0.1 and 0.01 nM for bryostatin; 0.1 nM, 0.1 μM, and 1 μM BL). DMSO was less than 1% in all cases. In most cases, medium was collected and processed after 3 hours of treatment for sAPP secretion. Other time points were also used to establish a time course of secretion.
sAPP—Determinations/Measurements of sAPPα
The concentration of secreted APP was measured using conventional immunoblotting techniques, with minor modifications the protocol. Precipitated protein extracts from each dish/treatment were loaded to freshly prepared 10% acrylamide Tris-HCl minigels and separated by SDPAGE. The volume of sample loaded was corrected for total cell protein per dish. Proteins were then electrophoretically transferred to PVDF membranes. Membranes were saturated with 5% non-fat dry milk to block non-specific binding. Blocked membranes were incubated overnight at 4° C. with the commercially available antibody 6E10 (1:500), which recognizes sAPP-alpha in the conditioned medium (SENETEK). After washing, the membranes were incubated at room temperature with horseradish peroxidase conjugated anti-mouse IgG secondary antibody (Jackson's Laboratories). The signal was then detected using enhanced chemiluminescence followed by exposure of Hyperfilm ECL (Amersham). The band intensities were quantified by densitometry using a BioRad GS-800 calibrated scanning densitometer and Multianalyst software (BioRad).

[4] = test system: sAPPα secretion, control cell lines AG07141 and AG06241; test: sAPPα secretion immunoblot, control fibroblasts; type: cell-based, human; details: two control cell lines pooled, 0.1 nM, compared to DMSO alone
Procedure: as §1
as §2, with “In most cases, medium was collected and processed after 3 hours of treatment for sAPP secretion. Other time points were also used to establish a time course of secretion.” left out
The concentration of secreted APP was measured using conventional immunoblotting techniques, with minor modifications the protocol. […] The signal was then detected using enhanced chemiluminescence followed by exposure of Hyperfilm ECL (Amersham). The band intensities were quantified by densitometry using a BioRad GS-800 calibrated scanning densitometer and Multianalyst software (BioRad).

[5] = target: T1, PKC-α (Homo sapiens, UniProt P17252); test: Immunoblot assay for PKC translocation, α isoenzyme; type: cell-based
T1 construct: endogenous in cells; host or cells: human fibroblasts (AD patient and control lines)
Procedure: Immunoblot experiments were conducted using well-established procedures (Dunbar, 1994). Cells were grown to confluency (˜90%) in 6 cm Petri dishes. […] Fibroblasts were washed twice with ice-cold PBS, scraped in PBS, and collected by low-speed centrifugation. The pellets were re-suspended in the following homogenization buffer: 20 mM Tris-HCl, pH 7.5, 2 mM EDTA, 2 mM EGTA, 5 mM DTT, 0.32 M sucrose, and protease inhibitor cocktail (Sigma). […] The pellets were homogenized in the same buffer containing 1.0% Triton X-100, incubated in ice for 45 minutes, and centrifuged at ˜12,000 g for 20 minutes. The supernatant from this batch was used as the membranous fraction. After protein determination, 20 μg of protein were diluted in 2× electrophoresis sample buffer (Novex), boiled for 5 minutes, run on 10% acrylamide gel, and transferred electrophoretically to a PVDF membrane. The membrane was saturated with 5% milk blocker by incubating it at room temperature for an hour. The primary antibody for PKC isoform (Transduction Laboratories) was diluted (1:1000) in blocking solution and incubated with the membrane overnight at 4° C. […] The band intensities were quantified by densitometry using a BioRad GS-800 calibrated scanning densitometer and Multianalyst software (BioRad).

[6] = test system: Wistar albino rats; test: Morris Water Maze; type: in vivo; details: for learning, escape latency from trial to trial: i.c.v. 1 μl/site of 2 μM, vs vehicle control
From the text: (See, for example, Hollister, L. E., 1990, Pharmacopsychiat., 23, (Suppl II) 33-36). The available animal models of memory loss and impaired learning involve measuring the ability of animals to remember a discrete event. These tests include the Morris Water Maze and the passive avoidance procedure. In the Morris Water Maze, animals are allowed to swim in a tank divided into four quadrants, only one of which has a safety platform beneath the water. The platform is removed and the animals are tested for how long they search the correct quadrant verse the incorrect quadrants. In the passive avoidance procedure the animal remembers the distinctive environment in which a mild electric shock is delivered and avoids it on a second occasion. A variant of the passive avoidance procedure makes use of a rodent's preference for dark enclosed environments over light open ones. Further discussion can be found in Crawley, J. N., 1981, Pharmacol. Biochem. Behav., 15, 695-699; Costall, B. et al., 1987, Neuropharmacol., 26, 195-200; Costall, B. et at, 1989, Pharmacol. Biochem. Behav., 32, 777-785; Barnes, J. M. et al., 1989, Br. J. Pharmacol., 98 (Suppl) 693P; Barnes, J. M. et al., 1990, Pharmacol. Biochem. Behav., 35, 955-962.
Wistar albino rats (n=20) weighing between 220-250 g were housed for one week with free access to food and water. Stainless steel cannulas were placed bilaterally in each rat, following previously described procedures (49). […] Subsequently, animals were assigned randomly to experimental and control groups. At least 24 h prior to treatment and training, all animals were pre-exposed to the MWM experimental situation by placing them in the water and allowed to swim for 120 s. The training followed standard procedures (49) and consisted of two trials per day for 4 consecutive days. […] The control group received the same volume of vehicle alone, on identical schedule. On the fifth day, the platform was removed and the retention test was conducted. Animals' movements and escape latencies were recorded with an automatic tracking system. […] Acquisition of memory was measured as time spent in the relevant quadrant (5th day). […] Bryostatin-1 is capable of being used at concentrations to improve cognition that are 300 to 300,000 times lower than the concentration used to treat tumors.

[7] = test system: double transgenic mice carrying the V7171 mutation and a Presenilin-1 (PS1) mutation; test: Double transgenic mice (V7171 and Presenilin-1 mutation) treated with Bryostatin-1; type: in vivo; details: 40 μg/k.g. i.p. three times a week
Procedure: A second transgenic study using similar procedures/testing and protocol was performed using double transgenic mice carrying the V7171 mutation and a Presenilin-1 (PS1) mutation, which causes accelerated amyloid formation, with the following major differences. Approximately 40 mice including both treated and controls were utilized. Treatment began at approximately 3 weeks of age and consisted of treatments with 40 μg/k.g. i.p. three times a week using Bryostatin-1. Controls were given vehicle alone. The treatment continued for approximately seven months before the morbidity rate of the non-treated animals necessitated termination of the experiment (see FIG. 10).

[8] = humans; cited from earlier work
[9] = approximately seven months, vs vehicle

Which results are given for `CCCCCCCC(=O)O[C@H]1/C(=C/C(=O)OC)C[C@H]2C[C@H](CO)OC(=O)C[C@H](O)C[C@@H]3CCC[C@H](C[C@@H]4CCO[C@H](/C=C/C(C)(C)[C@]1(O)O2)O4)O3` [Analog 1]?
potency relative to bryostatin-1 [1]: about 100 times; affinity for PKC, in words [2]: highest affinity; Ki ([2]; read-out: PKC Affin): 0.25 nM

Which “sAPPα secretion, time-course” value ([3]; 0.01 nM compared with 0.1 nM, 2 and 3 h of incubation) does the source give for `CCC/C=C/C=C/C(=O)O[C@H]1/C(=C/C(=O)OC)C[C@H]2C[C@H]([C@@H](C)O)OC(=O)C[C@H](O)C[C@@H]3C[C@H](OC(C)=O)C(C)(C)[C@](O)(C[C@@H]4C/C(=C/C(=O)OC)C[C@H](/C=C/C(C)(C)[C@]1(O)O2)O4)O3` [Bryostatin 1] here?
The value was “undistinguishable from the higher”.

And the “sAPPα secretion, time-course” value ([3]; 0.01 nM, only after 60 min of incubation)?
The value was “robust enhancement”.

What about the “sAPPα secretion, time-course” value ([3]; 0.1 nM, 2 and 3 h compared with 60 min) of the same compound?
Its value is “did not substantially differ from 60 min incubation”.

And the “sAPPα secretion, time-course” value ([3]; 0.1 nM, 30 and 60 min)?
Its value is “Progressive and proportional increases”.

What about the “sAPPα secretion, time-course” value ([3]; 0.1 nM, 15 min incubation) of the same compound?
Its value is “marked increase”.

What about the “secretion of sAPPα” value ([3]; 0.1 nM, listed as Bryostatin) of the same compound?
Its value is “dramatically enhanced”.

And the “secretion of sAPPα” value ([3]; 0.1 nM, listed as bryostatin)?
Its value is “dramatic increase”.

What about the “secretion of sAPPα” value ([4]; listed as Bryostatin) of the same compound?
Its value is “effective in enhancing secretion”.

And the “secretion of sAPPα” value ([4]; listed as bryostatin)?
The value was “enhanced the secretion of sAPPα”.

What about the “time of maximal PKC translocation (measure of activation)” value [5] of the same compound?
The value was 30 min.

What about the “time to improved cognition over control rats” value ([6]; i.c.v.) of the same compound?
Its value is at most 2 days.

What about the “learning, escape latency from trial to trial” value ([6]; listed as bryostatin) of the same compound?
Its value is “significantly faster”.

What about the “learning, escape latency from trial to trial” value ([6]; listed as bryostatin 1) of the same compound?
The value was “significantly lower”.

What about the “memory or retention, time spent in the relevant quadrant” value ([6]; i.c.v., 5th day, platform removed, vs controls) of the same compound?
The value was “significantly enhanced”.

What about the “percent plaque load, Thioflavin S staining” value ([7]; approximately seven months, vs controls) of the same compound?
The value was “decrease in percent plaque load”.

And the “behavioural differences, water testing” value [7, 9]?
Its value is “not significant”.

And the “total APP” value [7, 9]?
Its value is “overall lower amount; also recorded: noticeable change”.

What about the “life span, life percentage over time” value ([7]; vs controls, listed as Bryostatin) of the same compound?
The value was “increase in life span”.

And the “life span, life percentage over time” value ([7]; vs controls, listed as Bryostatin-1)?
Its value is “greater life percentage over time”.

What about the main adverse reaction [8] of the same compound?
The main adverse reaction was “myalgia”.

And the “maximum dose, limited by myalgia” value [8]?
The value was 40 mg/m2.
